These results are taken from patent publication US5232923A, “Catechol derivatives and pharmaceutical preparations containing same” (Mitsui Toatsu Chemicals, Incorporated, priority 1988, dated 1993).

The subject of test [1] is production and secretion of NGF in mouse L-M cells. Nature of the test: Promoting activity for the production and secretion of NGF in mouse L-M cells (ELISA of medium after 24 h). It is filed as cell-based. Particulars: Table 5, L-M cells, 0.4 mM; for fold induction at 400 µM: Mus musculus, 24 h, fold increase over control (1.00), read-out: NGF L-M Cell Increase Ratio; for NGF L-M Cell Concentration: 24 hours, control 0.87. For orientation: An ELISA detects its analyte on a solid surface through an enzyme-linked reagent.

The test system of test [2] is production and secretion of NGF in mouse brain astroglial cells. Nature of the test: Promoting activity for the production and secretion of NGF in mouse brain astroglial cells (ELISA of medium after 24 h). It is filed as cell-based. To be noted: Table 5, 0.4 mM; for fold induction at 400 µM: Mus musculus, 24 h, fold increase over control (1.00), read-out: NGF Astroglial Cell Increase Ratio; for NGF Astroglial Cell Concentration: 24 hours, control 31.8. The protocol: Promoting activity for the production and secretion of NGF in mouse brain astroglial cells
The experiment was performed by inducing astroglial cells from the mouse forebrain to a culture system according to the procedures of S. Furukawa et al. which is described in Biochem. Biophys. Res. Commun., 136, 57-63 (1986).
Forebrains of 8-days old mice were dissected out and cut into small pieces. The pieces were washed with calcium- and magnesium-free phosphate-bufferedsaline (hereinafter abbreviated as PBS), treated with 0.25% trypsin containing PBS at 37° C. for 30 minutes and triturated with a Pasteur pipet to give a suspension. Cells and cell clumps were recovered by centrifugation at 200 xg for 5 minutes. They were cultured in Dulbecco modified Eagle's medium (a product of Gibco Co. hereinafter abbreviated as DMEM) containing 10% fetal calf serum, 50 μ units/ml of penicillin, and 50 μg/ml of streptomycin, for 10 to 14 days with medium changes every 3 days. After completing confluency, the cells were dissociated by trypsin treatment and recultured in new culture flasks. This procedure was repeated further twice and more. The culture became a uniform cell cluster. The cell cluster for use in this invention can be stained not less than 97% in accordance with the PAP staining method (peroxidase/[…] staining method) using anti-human glial fibrillar acidic protein (GFAP) rabbit antiserum. The cells will hereinafter be referred to as astroglial cells.
Astroglial cells were innoculated in 24-well plates having a well surface area of 2.1 cm^2 (a product of Falcon Co.) at a cell density of about 3×10^4 cells/well and cultured for 3 days in DMEM medium supplemented with 10% of fetal calf serum. After completing confluency about ([…]), the medium was changed to DMEM medium (0.5 ml/well) supplemented with 0.5% of bovine serum albumin (fraction V) and cultured for 3 days. The culture was further continued with medium changes every 3 days. After cells were practically synchronized in the quiscent stage, the medium was changed to 0.5 ml of the same medium and containing a prescribed concentration of test sample as illustrated in the Tables. NGF in the medium after cultivating for 24 hours was determined by the ELISA as mentioned above. Data are expressed as fold increase in NGF content over that in the absence of the test sample. The lower detection limit of the ELISA is 0.25 pg/ml and the NGF content of control medium was normally 1-10 pg/0.5 ml/well. Data are presented as the mean of four determinations. The results are illustrated in Tables 1-5.

For `CCCCCCCCCCCCCCCCCCNC(=O)CCc1ccc(O)c(O)c1` [Compound 91, N-Stearyl-3,4-dihydroxyphenylpropionamide], in test [1], the fold induction at 400 µM was found to be 4.1 and the “NGF L-M Cell Concentration” value worked out at 3.57 ng/well. In test [2], the fold induction at 400 µM was 5.2 and the “NGF Astroglial Cell Concentration” value was 84.8 ng/well.
In the same order, the values of `CCCCCCN(CCCCCC)C(=O)CCc1ccc(O)c(O)c1` [Compound 92, N,N-Di-n-hexyl-3,4-dihydroxyphenylpropionamide] are 5, 4.35 ng/well, 8.8 and 143.4 ng/well.
On to `O=C(CCc1ccc(O)c(O)c1)NC1CCCCC1` [Compound 93, N-Cyclohexyl-3,4-dihydroxyphenylpropionamide], for which, in test [1], the fold induction at 400 µM is 6 and the “NGF L-M Cell Concentration” value amounted to 5.22 ng/well. For the same molecule, in test [2], the fold induction at 400 µM turned out to be 9.9 and the “NGF Astroglial Cell Concentration” value is recorded as 161.4 ng/well.
In the same order, the values of `CN(Cc1ccccc1)C(=O)CCc1ccc(O)c(O)c1` [Compound 94, N-Methyl N-benzyl-3,4-dihydroxyphenylpropionamide] are 5.1, 4.44 ng/well, 5.2 and 84.8 ng/well.
In the same order, the values of `O=C(CCc1ccc(O)c(O)c1)Nc1ccccc1` [Compound 95, N-Phenyl-3,4-dihydroxyphenylpropionamide] are 5.9, 5.13 ng/well, 11.2 and 182.6 ng/well.
The matching figures for `O=C(CCc1ccc(O)c(O)c1)NC12CC3CC(CC(C3)C1)C2` [Compound 96, N-Adamantyl-3,4-dihydroxyphenylpropionamide]: 5.7, 4.96 ng/well, 18 and 293.4 ng/well.
`O=C(CCc1ccc(O)c(O)c1)N1CCCCC1` [Compound 97, N-[3-(3,4-Dihydroxyphenyl)propionyl]piperidine]: in test [1], the fold induction at 400 µM was found to be 6.2 and the “NGF L-M Cell Concentration” value was found to be 5.39 ng/well. In test [2], the fold induction at 400 µM worked out at 13.7 and the “NGF Astroglial Cell Concentration” value turned out to be 435.7 ng/well.
On to `O=C(CCc1ccc(O)c(O)c1)N1CCCC1` [Compound 98, N-[3-(3,4-Dihydroxyphenyl)propionyl]pyrrolidine], for which, in test [1], the fold induction at 400 µM was 6.1 and the “NGF L-M Cell Concentration” value is 5.31 ng/well. In test [2], the fold induction at 400 µM was 12.8 and the “NGF Astroglial Cell Concentration” value turned out to be 407.0 ng/well.
In the same order, the values of `O=C(CCc1ccc(O)c(O)c1)N1CCOCC1` [Compound 99, N-[3-(3,4-Dihydroxyphenyl)propionyl]morpholine] are 4.8, 4.18 ng/well, 5.2 and 165.4 ng/well.
In the same order, the values of `CN1CCN(C(=O)CCc2ccc(O)c(O)c2)CC1` [Compound 100, N-Methyl-N'-[3-(3,4-dihydroxyphenyl)propionyl]piperazine] are 5, 4.35 ng/well, 8.2 and 260.8 ng/well.
The matching figures for `O=C(CCc1ccc(O)c(O)c1)N1CCN(Cc2ccccc2)CC1` [Compound 101, N-Benzyl-N'-[3-(3,4-dihydroxyphenyl)propionyl]piperazine]: 5.2, 4.52 ng/well, 9.6 and 305.3 ng/well.
For the molecule `O=C(CCc1ccc(O)c(O)c1)N1CCN(C(c2ccccc2)c2ccccc2)CC1` [Compound 102, N-Diphenylmethyl-N'-[3-(3,4-dihydroxyphenyl)propionyl]piperazine], in test [1], the fold induction at 400 µM is 5.1 and the “NGF L-M Cell Concentration” value turned out to be 4.44 ng/well. In addition, in test [2], the fold induction at 400 µM is 10.1 and the “NGF Astroglial Cell Concentration” value is given as 321.2 ng/well.
The matching figures for `COC(=O)[C@@H]1CCCN1C(=O)CCc1ccc(O)c(O)c1` [Compound 103, N-[3-(3,4-dihydroxyphenyl)propionyl]-L-proline methyl ester]: 4.3, 3.74 ng/well, 6.3 and 200.3 ng/well.
On to `CCOC(=O)C1CCCN(C(=O)CCc2ccc(O)c(O)c2)C1` (centres unmarked) [Compound 104, Ethyl N-[3-(3,4-dihydroxyphenyl)propionyl]nipecotinate], for which, in test [1], the fold induction at 400 µM turned out to be 5.7 and the “NGF L-M Cell Concentration” value is reported as 4.96 ng/well. In addition, in test [2], the fold induction at 400 µM was determined as 7.8 and the “NGF Astroglial Cell Concentration” value was found to be 248.0 ng/well.
